# Results from publication PMC12064818, “A general assay platform to study protein pharmacology using ligand-dependent structural dynamics” (Nature Communications, 2025).
# Molecular target: T1, Nano luciferase (NLuc) (Oplophorus gracilirostris, UniProt Q9GV45, A31E/A60N/A81I/F95D/I117V/K70R/L54V/L99Q/M102K/N193R/P142E/Q151K/Q38R/Q45L/V71I/Y165I)
# T1 construct: His tag (inferred from IMAC purification); made in house; host or cells: E. coli
# Experiment: Thermal shift profiles (Thermofluor assay), NLuc
# Type: binding
# Set-up: unit of the concentration uncertain
# Conditions: compound 100 (unit uncertain); for Thermofluor NLuc, ATP: ATP (2 mM)
# Method: Thermal stabilization of proteins in the presence of the ligands were determined using Thermofluor technique. MicroAmp optical 384-well plates (Applied Biosystems by Life Technologies), ViiA 7 real-time PCR instrument (Applied Biosystems by Life Technologies) and SYPRO Orange (Life Technologies) were used to test the samples. […]. Proteins were added to the 384-well plate first followed by the compounds. Samples were incubated for 10 mins at room temperature and protected from light. SYPRO Orange dye was diluted to 50x from 5000x stock in a PBS buffer, and 4 µL dye was added to the each well using a multi-channel pipette. The plate was sealed with a MicroAmp optical adhesive film, centrifuged at 1500 RPM for 2 min, and then loaded onto the ViiA 7 real–time PCR instrument for fluorescence intensity measurements upon heating the sample from 25 to 95 °C at 1 °C/min increments. Data was exported to excel, fluorescence intensity data and its first derivative were normalized and plotted using GraphPad Prism to determine Tm. See Supplementary Table 3 for additional details.
# Supplementary Figure 6. Comparison of SDR and Thermofluor analysis of […]
# Temperature °C Temperature °C […]
# Supplementary Table 3. Protocol for Thermofluor assay
# Supplementary Table 3: Protocol for Therm ofluor assay
# Sequence Param eter Value Description […]
# 3 Incubation 10 m ins Room tem perature, protected from light
# 4 Dye 10X Sypro Orange dye in PBS added to the sam ple
# 5 Centrifugation 2 m in Centrifuge for 2 m in at 1500 RPM at RT
# 6 Read ViiA7 Read the therm al unfolding of the protein with ViiA7 real-tim e PCR system
# 4 Prepare 50X dye in PBS: 1 μL Sypro Orange 5000X (Life Technologies), 99 μL ddH2O. Add 4 μL to each well Read the m elting tem perature from 25 to 95 °C using ViiA 7 real tim e PCR instrum ent by following the below instructions Perform therm al denaturation in 384-well assay plate
# (i) Place the assay plate into the Applied Biosystem s ViiA7 real-tim e PCR instrum ent and open the ViiA7 RUO software.
# Under Experim ental Properties, select the following param eters: Set up: […] (20 μl), Experim ent type: MELT CURVE, Reagents used to detect target sequence: OTHER, Ram p Speed: […]
# (ii) Select the Define tab on the left, then select the following param eters: Target nam e: TARGET 1, Reporter: ROX, 6 Quencher: NONE, Passive Reference: NONE
# (iii) Select the Assign tab on the left, then perform the following actions: Highlight all 384 wells in the assay plate and check the box next to ‘Target 1’ on the top left of the plate layout. Note: check the ‘Sam ple’ box on the lower left.
# (iv) Select the Run Method tab on the left, then m ake the following changes to the default Melt Curve profile: Delete Step 2 of the default cycle, change run m ethod to “Step and Hold” with a 1:00 tim e, set the following tem peratures: an initial 2:00 hold at 25 °C (4 °C), ram ping up in increm ents of 1 ° C to a final tem perature of 95 °C (with a 2:00 hold), click on all three cam eras to activate fluorescence detection throughout the experim ent, and Select total volum e per well of 20 μl
# (v) Click on the RUN tab to the left to initiate therm al denaturation.
# T1 sequence (Q9GV45 other isoform, or with tags, fused parts or gaps with the stated changes): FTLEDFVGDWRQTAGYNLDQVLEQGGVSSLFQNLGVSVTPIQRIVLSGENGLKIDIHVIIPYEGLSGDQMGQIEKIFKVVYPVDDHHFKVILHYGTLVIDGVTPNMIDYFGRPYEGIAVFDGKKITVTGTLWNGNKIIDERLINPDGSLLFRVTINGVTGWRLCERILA
compound,measurement,setting,value
COc1ccc(NC(=O)C2CCN(C(=O)c3ncn4c3COC(c3ccccc3)C4)CC2)cc1Cl (stereo not drawn) [NCGC 00449919],"Thermofluor NLuc, No ATP",20.000 °C,1
same,"Thermofluor NLuc, ATP",20.000 °C,0.908
same,"Thermofluor NLuc, No ATP",20.993 °C,0.737
same,"Thermofluor NLuc, ATP",20.993 °C,0.958
same,"Thermofluor NLuc, No ATP",21.987 °C,0.665
same,"Thermofluor NLuc, ATP",21.987 °C,0.992
same,"Thermofluor NLuc, No ATP",22.980 °C,0.636
same,"Thermofluor NLuc, ATP",22.980 °C,1
same,"Thermofluor NLuc, No ATP",23.974 °C,0.59
same,"Thermofluor NLuc, ATP",23.974 °C,0.981
same,"Thermofluor NLuc, No ATP",24.967 °C,0.577
same,"Thermofluor NLuc, ATP",24.967 °C,0.945
same,"Thermofluor NLuc, No ATP",25.960 °C,0.551
same,"Thermofluor NLuc, ATP",25.960 °C,0.901
same,"Thermofluor NLuc, No ATP",26.954 °C,0.532
same,"Thermofluor NLuc, ATP",26.954 °C,0.858
same,"Thermofluor NLuc, No ATP",27.947 °C,0.492
same,"Thermofluor NLuc, ATP",27.947 °C,0.821
same,"Thermofluor NLuc, No ATP",28.940 °C,0.484
same,"Thermofluor NLuc, ATP",28.940 °C,0.79
same,"Thermofluor NLuc, No ATP",29.934 °C,0.475
same,"Thermofluor NLuc, ATP",29.934 °C,0.766
same,"Thermofluor NLuc, No ATP",30.927 °C,0.424
same,"Thermofluor NLuc, ATP",30.927 °C,0.748
same,"Thermofluor NLuc, No ATP",31.921 °C,0.447
same,"Thermofluor NLuc, ATP",31.921 °C,0.735
same,"Thermofluor NLuc, No ATP",32.914 °C,0.416
same,"Thermofluor NLuc, ATP",32.914 °C,0.726
same,"Thermofluor NLuc, No ATP",33.907 °C,0.402
same,"Thermofluor NLuc, ATP",33.907 °C,0.72
same,"Thermofluor NLuc, No ATP",34.901 °C,0.393
same,"Thermofluor NLuc, ATP",34.901 °C,0.716
same,"Thermofluor NLuc, No ATP",35.894 °C,0.367
same,"Thermofluor NLuc, ATP",35.894 °C,0.71
same,"Thermofluor NLuc, No ATP",36.887 °C,0.355
same,"Thermofluor NLuc, ATP",36.887 °C,0.703
same,"Thermofluor NLuc, No ATP",37.881 °C,0.332
same,"Thermofluor NLuc, ATP",37.881 °C,0.693
same,"Thermofluor NLuc, No ATP",38.874 °C,0.332
same,"Thermofluor NLuc, ATP",38.874 °C,0.683
same,"Thermofluor NLuc, No ATP",39.868 °C,0.308
same,"Thermofluor NLuc, ATP",39.868 °C,0.672
same,"Thermofluor NLuc, No ATP",40.861 °C,0.311
same,"Thermofluor NLuc, ATP",40.861 °C,0.661
same,"Thermofluor NLuc, No ATP",41.854 °C,0.286
same,"Thermofluor NLuc, ATP",41.854 °C,0.65
same,"Thermofluor NLuc, No ATP",42.848 °C,0.281
same,"Thermofluor NLuc, ATP",42.848 °C,0.638
same,"Thermofluor NLuc, No ATP",43.841 °C,0.279
same,"Thermofluor NLuc, ATP",43.841 °C,0.624
same,"Thermofluor NLuc, No ATP",44.835 °C,0.247
same,"Thermofluor NLuc, ATP",44.835 °C,0.61
same,"Thermofluor NLuc, No ATP",45.828 °C,0.259
same,"Thermofluor NLuc, ATP",45.828 °C,0.594
same,"Thermofluor NLuc, No ATP",46.821 °C,0.247
same,"Thermofluor NLuc, ATP",46.821 °C,0.579
same,"Thermofluor NLuc, No ATP",47.815 °C,0.245
same,"Thermofluor NLuc, ATP",47.815 °C,0.563
same,"Thermofluor NLuc, No ATP",48.808 °C,0.238
same,"Thermofluor NLuc, ATP",48.808 °C,0.547
same,"Thermofluor NLuc, No ATP",50.795 °C,0.24
same,"Thermofluor NLuc, ATP",50.795 °C,0.504
same,"Thermofluor NLuc, No ATP",51.788 °C,0.229
same,"Thermofluor NLuc, ATP",51.788 °C,0.47
same,"Thermofluor NLuc, No ATP",52.782 °C,0.227
same,"Thermofluor NLuc, ATP",52.782 °C,0.422
same,"Thermofluor NLuc, No ATP",53.775 °C,0.227
same,"Thermofluor NLuc, ATP",53.775 °C,0.36
same,"Thermofluor NLuc, No ATP",54.768 °C,0.248
same,"Thermofluor NLuc, ATP",54.768 °C,0.285
same,"Thermofluor NLuc, No ATP",55.762 °C,0.239
same,"Thermofluor NLuc, ATP",55.762 °C,0.202
same,"Thermofluor NLuc, No ATP",56.755 °C,0.264
same,"Thermofluor NLuc, ATP",56.755 °C,0.122
same,"Thermofluor NLuc, No ATP",57.748 °C,0.317
same,"Thermofluor NLuc, ATP",57.748 °C,0.055
same,"Thermofluor NLuc, No ATP",58.742 °C,0.38
same,"Thermofluor NLuc, ATP",58.742 °C,0.012
same,"Thermofluor NLuc, No ATP",59.735 °C,0.412
same,"Thermofluor NLuc, ATP",59.735 °C,0
same,"Thermofluor NLuc, No ATP",60.729 °C,0.472
same,"Thermofluor NLuc, ATP",60.729 °C,0.021
same,"Thermofluor NLuc, No ATP",61.722 °C,0.524
same,"Thermofluor NLuc, ATP",61.722 °C,0.072
same,"Thermofluor NLuc, No ATP",62.715 °C,0.52
same,"Thermofluor NLuc, ATP",62.715 °C,0.145
same,"Thermofluor NLuc, No ATP",63.709 °C,0.568
same,"Thermofluor NLuc, ATP",63.709 °C,0.233
same,"Thermofluor NLuc, No ATP",65.695 °C,0.566
same,"Thermofluor NLuc, ATP",65.695 °C,0.416
same,"Thermofluor NLuc, No ATP",66.689 °C,0.551
same,"Thermofluor NLuc, ATP",66.689 °C,0.499
same,"Thermofluor NLuc, No ATP",68.676 °C,0.541
same,"Thermofluor NLuc, ATP",68.676 °C,0.632
same,"Thermofluor NLuc, No ATP",69.669 °C,0.515
same,"Thermofluor NLuc, ATP",69.669 °C,0.682
same,"Thermofluor NLuc, No ATP",70.662 °C,0.497
same,"Thermofluor NLuc, ATP",70.662 °C,0.723
same,"Thermofluor NLuc, No ATP",71.656 °C,0.488
same,"Thermofluor NLuc, ATP",71.656 °C,0.755
same,"Thermofluor NLuc, No ATP",72.649 °C,0.477
same,"Thermofluor NLuc, ATP",72.649 °C,0.781
same,"Thermofluor NLuc, No ATP",73.643 °C,0.428
same,"Thermofluor NLuc, ATP",73.643 °C,0.8
same,"Thermofluor NLuc, No ATP",74.636 °C,0.405
same,"Thermofluor NLuc, ATP",74.636 °C,0.812
same,"Thermofluor NLuc, No ATP",75.629 °C,0.392
same,"Thermofluor NLuc, ATP",75.629 °C,0.819
